Measured values taken from patent US10918645B2 (LIFEARC, priority 2016, dated 2021).

Tests used:
JAK2 = JAK2 (Homo sapiens (Human), UniProt O60674); assay: JAK2 kinase selectivity assay (33P panel); assay type: biochemical; settings: 1 μM inhibitor concentration
Method: JAK2 (5-20 mU diluted in 50 mM Tris pH 7.5, 0.1 mM EGTA, 0.05% 0-mercaptoethanol, 1 mg/ml BSA) is assayed against PDKtide ([…]-[…]) in a final volume of 25.5 μl containing 50 mM Tris pH 7.5, 0.1 mM EGTA, 0.05% 0-mercaptoethanol, 100 μM substrate peptide, 10 mM magnesium acetate and 0.005 mM [33P-γ-ATP] (50-1000 cpm/pmole) and incubated for 30 min at room temperature Assays are stopped by addition of 5 μl of 0.5 M (3%) orthophosphoric acid and then harvested onto P81 Unifilter plates with a wash buffer of 50 mM orthophosphoric acid.

[1] = system: transgenic Drosophila expressing LRRK2-G2019S in dopamine (DA) neurons; assay: Drosophila model climbing assay (negative geotaxis); assay type: in vivo; settings: significance compared to DMSO negative control
Text: (§1) Drosophila model was used to evaluate Examples in vivo. The GAL4/UAS system developed by Andrea Brand and Norbert Perrimon in 1993 [45] was used to generate transgenic Drosophila expressing LRRK2-G2019S in dopamine (DA) neurons. The system has two parts: the GAL4 gene, encoding the yeast transcription activator protein GAL4, and the UAS (Upstream Activation Sequence), an enhancer to which GAL4 specifically binds to activate gene transcription. This system takes advantage of the yeast GAL4 transcription factor, which binds specifically to the UAS.
To express LRRK2-G2019S in DA neurons, the UAS-Wild Type-LRRK2 and UAS-G2019S-LRRK2 transgenes were combined with the dopa decarboxylase (ddc)-GAL4 driver. The 10 μM GW5074 was used for the positive control. The negative control group was DMSO control (all compounds were dissolved in DMSO with 1:1000 dillution). The Drosophila were maintained at 25° C. on a 12 hour light-12 hour dark cycle. GW5074 was used as positive control.
The negative geotaxis assay was used to analyse the locomotors ability of the Drosophila. Twenty Drosophila from each vial and 4 vials for each group were performed the climbing assay weekly.
The tested Drosophila were transferred into a vertical plastic tube (15 cm tall, 1.5 cm in diameter). After 30 min of rest at room temperature, the Drosophila were gently tapped to the bottom of the tube, the numbers of Drosophila that could climb to or above the test line within 10 seconds were counted and the percent were calculated.
The climbing abilities were analysed based on three separate experiments for each vial and the data were analysed by GraphPad PRISM® 6.0 software.

[2] = molecular target: LRRK2 (phospho S935) in Drosophila brain lysates (Homo sapiens (Human), UniProt Q5S007, G2019S); assay: Drosophila model kinase assays at week 6; assay type: in vivo; settings: ratio of phosphate LRRK2 protein to Flag protein, significance compared to DMSO negative control
Method: The 10 μM GW5074 was used for the positive control. The negative control group was DMSO control (all compounds were dissolved in DMSO with 1:1000 dillution). The Drosophila were maintained at 25° C. on a 12 hour light-12 hour dark cycle. GW5074 was used as positive control [47].
The adult Drosophila heads were homogenized on ice, and the brain lysates were performed kinase reaction in kinase reaction buffer with ATP and DTT.
Then the lysates were electrophoresed through 12% SDS-PAGE gels and transferred to PVDF membranes (Millipore). The membranes were blocked in TBST with 5% skimmed milk for 1 hour at room temperature and then incubated in anti-LRRK2 pSer935 antibody (Abcam, ab133450) and anti-Flag antibody overnight at 4° C.
The proteins were detected with HRP-conjugated secondary antibodies and ECL detection reagents. The optical density of immunoblotting was analysed by Image J software and the ratio of phosphate LRRK2 protein compare to Flag protein were calculated and the data were analysed by GraphPad PRISM® 6.0 software.

[3] = system: transgenic Drosophila expressing LRRK2-G2019S in dopamine (DA) neurons; assay: Drosophila model survival rate; assay type: in vivo; settings: significance compared to DMSO negative control
Text: as §1
To express LRRK2-G2019S in DA neurons, the UAS-Wild Type-LRRK2 and UAS-G2019S-LRRK2 transgenes were combined with the dopa decarboxylase (ddc)-GAL4 driver. The 10 μM GW5074 was used for the positive control. […]
Twenty newly enclosed female Drosophila were collected and placed in a food vial. The Drosophila were moved to fresh food vials every other day at which time deaths were scored.
Based on Drosophila′ survival curve, the 50% survival time parameter indicates the time at which half of the Drosophila remained alive and was used to compare the survival ratio between the different groups. The mean 50% survival times and the standard errors were calculated based on 4 separate experiments for each group. The data were analysed by GraphPad PRISM® 6.0 software.

LRRK2 G2019S = LRRK2 G2019S (Homo sapiens (Human), UniProt Q5S007, G2019S); assay: Adapta Kinase Assay (LRRK2_IC50 assay); assay type: biochemical; settings: inhibition of LRRK2 G2019S
Method: In Adapta™ Kinase Assay (LRRK2_IC50 assay): the Kinase Reaction Buffer contained 5× Kinase Buffer S (Life Technologies, PV5213) and 2 mM DTT (Life Technologies, P2325).
The Adapta® universal kinase assay is a homogenous, fluorescent based immunoassay for the detection of ADP. In contrast to ATP depletion assays, the Adapta® assay is extremely sensitive to ADP formation such that a majority of the signal change occurs in the first 10-20% conversion of ATP to ADP. This makes the Adapta® universal kinase assay ideally suited for use with low activity kinases.
Prepare a 1× solution of kinase reaction buffer from the 5× Kinase Buffer S stock (listed above) by adding 2 ml of 5× stock to 8 ml of H2O to make 10 ml of 1× kinase reaction buffer. To this, add 20 μl of 1 M DTT.
Kinase reactions are performed in a 10 μl volume in low-volume 384-well plates. […] Other non—treated assay plates, while not tested, may also be suitable. The concentration of substrate in the assay is 100 μM, and the 1× kinase reaction buffer consists of 50 mM Tris-HCl pH8.5, 10 mM MgCl2, 1 mM EGTA, 0.01% Brij-35, and 2 mM DTT, plus any additional additives that may be required for a specific kinase. […] The plate is allowed to equilibrate at room temperature for at least 30 minutes before being read on a plate reader configured for Adapta™ TR-FRET.
The data presented in this document were generated using a BMG LABTECH PHERAstar plate reader using the appropriate filters and instrument settings for Adapta™. The Test Compounds are screened in 1% DMSO (final) in the well. For 8 point titrations, 5-fold serial dilutions are conducted from the starting concentration.
IC50 estimates were obtained using the software XLfit (IDBS Inc.).

Sequence of LRRK2 G2019S (Q5S007 970-2527 G2019S): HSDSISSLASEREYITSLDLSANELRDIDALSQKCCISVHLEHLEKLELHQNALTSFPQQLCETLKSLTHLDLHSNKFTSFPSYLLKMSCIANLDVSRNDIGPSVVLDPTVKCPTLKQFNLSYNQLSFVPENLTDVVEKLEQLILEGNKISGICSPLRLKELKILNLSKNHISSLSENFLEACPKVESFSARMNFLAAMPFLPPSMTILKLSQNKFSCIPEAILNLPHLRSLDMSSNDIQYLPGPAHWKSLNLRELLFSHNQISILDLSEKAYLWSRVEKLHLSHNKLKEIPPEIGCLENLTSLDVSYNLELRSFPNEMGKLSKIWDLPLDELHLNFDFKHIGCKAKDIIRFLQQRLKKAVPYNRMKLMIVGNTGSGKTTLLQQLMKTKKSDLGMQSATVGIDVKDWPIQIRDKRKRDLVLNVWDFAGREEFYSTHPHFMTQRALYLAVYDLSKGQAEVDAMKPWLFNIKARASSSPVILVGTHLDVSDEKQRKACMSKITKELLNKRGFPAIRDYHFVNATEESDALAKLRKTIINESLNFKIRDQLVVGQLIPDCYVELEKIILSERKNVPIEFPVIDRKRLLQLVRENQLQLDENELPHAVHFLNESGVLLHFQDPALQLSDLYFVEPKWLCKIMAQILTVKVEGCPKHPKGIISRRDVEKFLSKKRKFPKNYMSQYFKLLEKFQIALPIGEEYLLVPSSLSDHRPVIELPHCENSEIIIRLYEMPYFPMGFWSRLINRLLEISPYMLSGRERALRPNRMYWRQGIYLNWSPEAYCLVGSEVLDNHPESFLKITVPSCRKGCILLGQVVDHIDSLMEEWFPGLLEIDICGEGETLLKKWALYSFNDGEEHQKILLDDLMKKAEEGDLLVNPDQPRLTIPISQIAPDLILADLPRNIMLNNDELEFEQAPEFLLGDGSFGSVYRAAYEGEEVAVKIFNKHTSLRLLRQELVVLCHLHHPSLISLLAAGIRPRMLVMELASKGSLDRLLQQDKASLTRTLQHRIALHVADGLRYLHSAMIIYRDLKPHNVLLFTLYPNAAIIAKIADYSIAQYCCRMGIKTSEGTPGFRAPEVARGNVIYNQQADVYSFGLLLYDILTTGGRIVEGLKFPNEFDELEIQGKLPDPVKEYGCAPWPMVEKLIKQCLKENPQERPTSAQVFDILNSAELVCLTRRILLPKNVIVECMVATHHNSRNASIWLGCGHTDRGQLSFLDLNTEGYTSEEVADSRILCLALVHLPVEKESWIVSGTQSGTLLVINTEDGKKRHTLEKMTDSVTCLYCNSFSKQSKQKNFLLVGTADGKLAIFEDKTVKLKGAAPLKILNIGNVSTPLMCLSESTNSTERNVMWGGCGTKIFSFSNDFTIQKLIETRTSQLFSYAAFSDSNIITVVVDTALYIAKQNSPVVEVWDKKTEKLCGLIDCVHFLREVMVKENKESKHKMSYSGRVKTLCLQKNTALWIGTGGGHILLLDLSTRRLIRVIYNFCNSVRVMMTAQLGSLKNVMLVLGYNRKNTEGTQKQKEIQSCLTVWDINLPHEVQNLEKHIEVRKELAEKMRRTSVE
Sequence of JAK2 (O60674 whole entry, species assumed): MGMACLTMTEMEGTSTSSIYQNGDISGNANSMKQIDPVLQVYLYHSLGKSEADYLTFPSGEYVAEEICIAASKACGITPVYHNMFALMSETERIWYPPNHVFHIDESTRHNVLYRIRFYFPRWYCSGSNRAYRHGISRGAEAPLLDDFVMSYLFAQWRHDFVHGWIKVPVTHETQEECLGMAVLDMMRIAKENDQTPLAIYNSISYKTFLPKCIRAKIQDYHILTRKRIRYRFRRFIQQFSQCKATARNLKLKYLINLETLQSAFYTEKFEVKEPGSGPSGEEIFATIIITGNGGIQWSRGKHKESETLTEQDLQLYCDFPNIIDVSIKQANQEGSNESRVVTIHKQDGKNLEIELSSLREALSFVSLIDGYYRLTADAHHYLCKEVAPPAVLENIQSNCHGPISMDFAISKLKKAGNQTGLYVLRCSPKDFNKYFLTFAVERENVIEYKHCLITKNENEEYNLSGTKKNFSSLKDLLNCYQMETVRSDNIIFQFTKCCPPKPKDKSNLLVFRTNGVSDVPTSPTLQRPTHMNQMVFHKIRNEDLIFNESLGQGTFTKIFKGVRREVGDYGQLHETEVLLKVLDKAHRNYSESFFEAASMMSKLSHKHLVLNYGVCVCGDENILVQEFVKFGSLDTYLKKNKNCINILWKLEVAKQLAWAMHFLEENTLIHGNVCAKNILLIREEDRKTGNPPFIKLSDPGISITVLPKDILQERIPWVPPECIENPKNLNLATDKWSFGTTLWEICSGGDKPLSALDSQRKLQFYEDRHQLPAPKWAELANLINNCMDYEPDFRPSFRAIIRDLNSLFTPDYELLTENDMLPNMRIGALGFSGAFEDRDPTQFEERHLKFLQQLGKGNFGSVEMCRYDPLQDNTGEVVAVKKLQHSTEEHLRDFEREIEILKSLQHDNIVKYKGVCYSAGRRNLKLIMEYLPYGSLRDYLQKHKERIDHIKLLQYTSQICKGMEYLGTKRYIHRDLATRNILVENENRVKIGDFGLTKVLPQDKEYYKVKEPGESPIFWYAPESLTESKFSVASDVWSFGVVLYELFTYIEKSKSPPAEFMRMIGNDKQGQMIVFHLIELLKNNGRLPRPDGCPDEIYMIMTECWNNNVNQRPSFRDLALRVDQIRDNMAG

## c1cc2[nH]nc3c2c(n1)N(C1CCC1)CCC3 [Example 22, 6-cyclobutyl-6,7,8,9-tetrahydro-2H-1,2,5,6-tetraazabenzo[cd]azulene]
JAK2
  percentage inhibition of JAK2: 5 percentage

## c1cc2[nH]nc3c2c(n1)N(C1CCCC1)CCC3 [Example 23, 6-cyclopentyl-6,7,8,9-tetrahydro-2H-1,2,5,6-tetraazabenzo[cd]azulene]
JAK2
  percentage inhibition of JAK2: 12 percentage

## c1cc2[nH]nc3c2c(n1)N(C1CCOCC1)CCC3 [Example 29, 6-(tetrahydro-2H-pyran-4-yl)-6,7,8,9-tetrahydro-2H-1,2,5,6-tetraazabenzo[cd]azulene]
[1]; 3 weeks
  Climbing Assay 3 weeks: * (P < 0.05, compared to DMSO negative control)
[1]; 4 weeks
  Climbing Assay 4 weeks: ** (P < 0.01, compared to DMSO negative control)
[1]; 5 weeks
  Climbing Assay 5 weeks: * (P < 0.05, compared to DMSO negative control)
[1]; 6 weeks
  Climbing Assay 6 weeks: * (P < 0.05, compared to DMSO negative control)
[2]
  Kinase Assays: * (P < 0.05, compared to DMSO negative control)
[3]
  Survival Rate: * (P < 0.05, compared to DMSO negative control)
LRRK2 G2019S
  IC50: 150 nM

## CN1CCC(N2Cc3ccccc3-c3n[nH]c4ccnc2c34)CC1 [Example 55]
LRRK2 G2019S
  IC50: 50 nM
